Laboratory results from PubChem BioAssay AID1919015 (Molecular Pharmacology Branch, DTP, NCI, 2023).

Tested on: OVCAR-5 complex spheroids with HUVEC/MSC, viability, % test/control
Experiment: Anticancer human tumor OVCAR-5 cell line growth inhibition [AhR];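 further: spheroids exposed to compounds for 7 days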;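 on viability, T/C: 100% = DMSO vehicle control wells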
Details: for IC50: curve of first compound; for viability, T/C: stronger effect = lower value
Procedure, shortened: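 Spheroids combined tumor cells with HUVEC endothelial cells and human MSCs as stroma. AhR antagonists were paired with standard or investigational drugs, each dosed in half-log steps down from near clinical Cmax, or from 10 microM where Cmax was unknown.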

[1] = second compound 0.1 µM, first compound 0.0316 µM
[2] = second compound 0.1 µM, first compound 0.1 µM
[3] = second compound 0.1 µM, first compound 0.316 µM
[4] = second compound 0.1 µM, first compound 1 µM
[5] = second compound 0.316 µM, first compound 0.0316 µM
[6] = second compound 0.316 µM, first compound 0.1 µM
[7] = second compound 0.316 µM, first compound 0.316 µM
[8] = second compound 0.316 µM, first compound 1 µM
[9] = second compound 1 µM, first compound 0.0316 µM
[10] = second compound 1 µM, first compound 0.1 µM
[11] = second compound 1 µM, first compound 0.316 µM
[12] = second compound 1 µM, first compound 1 µM
[13] = second compound 3.16 µM, first compound 0.0316 µM
[14] = second compound 3.16 µM, first compound 0.1 µM
[15] = second compound 3.16 µM, first compound 0.316 µM
[16] = second compound 3.16 µM, first compound 1 µM
[17] = second compound 10 µM, first compound 0.0316 µM
[18] = second compound 10 µM, first compound 0.1 µM
[19] = second compound 10 µM, first compound 0.316 µM
[20] = second compound 10 µM, first compound 1 µM

CC1COCCN1c1cc(-c2ccnn2C)c2ccnc(-c3ccn[nH]3)c2n1 (stereo not given) + Cc1ccccc1N=Nc1ccc(NC(=O)c2ccnn2C)c(C)c1
IC50 (second compound 0.1 µM): 244 nM | IC50 (second compound 0.316 µM): 253 nM | IC50 (second compound 1 µM): 284 nM | IC50 (second compound 3.16 µM): 269 nM | IC50 (second compound 10 µM): 272 nM | viability, T/C (second compound 0.1 µM, first compound 0.00316 µM): 102% | viability, T/C (second compound 0.1 µM, first compound 0.01 µM): 101% | viability, T/C [1]: 98.5% | viability, T/C [2]: 79.9% | viability, T/C [3]: 41.4% | viability, T/C [4]: 26.3% | viability, T/C (second compound 0.316 µM, first compound 0.00316 µM): 104% | viability, T/C (second compound 0.316 µM, first compound 0.01 µM): 105% | viability, T/C [5]: 101% | viability, T/C [6]: 81.1% | viability, T/C [7]: 42.5% | viability, T/C [8]: 28.2% | viability, T/C (second compound 1 µM, first compound 0.00316 µM): 108% | viability, T/C (second compound 1 µM, first compound 0.01 µM): 110% | viability, T/C [9]: 101% | viability, T/C [10]: 87.5% | viability, T/C [11]: 45.5% | viability, T/C [12]: 30.1% | viability, T/C (second compound 3.16 µM, first compound 0.00316 µM): 109% | viability, T/C (second compound 3.16 µM, first compound 0.01 µM): 109% | viability, T/C [13]: 105% | viability, T/C [14]: 88.6% | viability, T/C [15]: 43.4% | viability, T/C [16]: 32.5% | viability, T/C (second compound 10 µM, first compound 0.00316 µM): 105% | viability, T/C (second compound 10 µM, first compound 0.01 µM): 106% | viability, T/C [17]: 101% | viability, T/C [18]: 82.2% | viability, T/C [19]: 45% | viability, T/C [20]: 33%

CC1COCCN1c1cc(C2(S(C)(=N)=O)CC2)nc(-c2ccnc3[nH]ccc23)n1 (stereo not given) + Cc1ccccc1N=Nc1ccc(NC(=O)c2ccnn2C)c(C)c1
IC50 (second compound 0.1 µM): 7020 nM | IC50 (second compound 0.316 µM): 7540 nM | IC50 (second compound 1 µM): 9320 nM | IC50 (second compound 3.16 µM): 9730 nM | IC50 (second compound 10 µM): > 10000 nM | viability, T/C [1]: 107% | viability, T/C [2]: 108% | viability, T/C [3]: 105% | viability, T/C [4]: 99.7% | viability, T/C (second compound 0.1 µM, first compound 3.16 µM): 74.8% | viability, T/C (second compound 0.1 µM, first compound 10 µM): 38.9% | viability, T/C [5]: 111% | viability, T/C [6]: 111% | viability, T/C [7]: 108% | viability, T/C [8]: 100% | viability, T/C (second compound 0.316 µM, first compound 3.16 µM): 78.9% | viability, T/C (second compound 0.316 µM, first compound 10 µM): 40.6% | viability, T/C [9]: 114% | viability, T/C [10]: 115% | viability, T/C [11]: 115% | viability, T/C [12]: 105% | viability, T/C (second compound 1 µM, first compound 3.16 µM): 83.3% | viability, T/C (second compound 1 µM, first compound 10 µM): 47.8% | viability, T/C [13]: 111% | viability, T/C [14]: 121% | viability, T/C [15]: 116% | viability, T/C [16]: 106% | viability, T/C (second compound 3.16 µM, first compound 3.16 µM): 85.9% | viability, T/C (second compound 3.16 µM, first compound 10 µM): 49% | viability, T/C [17]: 107% | viability, T/C [18]: 110% | viability, T/C [19]: 111% | viability, T/C [20]: 105% | viability, T/C (second compound 10 µM, first compound 3.16 µM): 85.4% | viability, T/C (second compound 10 µM, first compound 10 µM): 50.8%

O=C(C=Cn1cnc(-c2cc(C(F)(F)F)cc(C(F)(F)F)c2)n1)NNc1cnccn1 + Cc1ccccc1N=Nc1ccc(NC(=O)c2ccnn2C)c(C)c1
IC50 (second compound 0.1 µM): 1750 nM | IC50 (second compound 0.316 µM): 2350 nM | IC50 (second compound 1 µM): 2830 nM | IC50 (second compound 3.16 µM): 2120 nM | IC50 (second compound 10 µM): 1640 nM | viability, T/C (second compound 0.1 µM, first compound 0.00949 µM): 109% | viability, T/C (second compound 0.1 µM, first compound 0.03 µM): 113% | viability, T/C (second compound 0.1 µM, first compound 0.0949 µM): 102% | viability, T/C (second compound 0.1 µM, first compound 0.3 µM): 83.4% | viability, T/C (second compound 0.1 µM, first compound 0.949 µM): 59.2% | viability, T/C (second compound 0.1 µM, first compound 3 µM): 42.2% | viability, T/C (second compound 0.316 µM, first compound 0.00949 µM): 115% | viability, T/C (second compound 0.316 µM, first compound 0.03 µM): 109% | viability, T/C (second compound 0.316 µM, first compound 0.0949 µM): 100% | viability, T/C (second compound 0.316 µM, first compound 0.3 µM): 82.4% | viability, T/C (second compound 0.316 µM, first compound 0.949 µM): 59.6% | viability, T/C (second compound 0.316 µM, first compound 3 µM): 47.5% | viability, T/C (second compound 1 µM, first compound 0.00949 µM): 114% | viability, T/C (second compound 1 µM, first compound 0.03 µM): 116% | viability, T/C (second compound 1 µM, first compound 0.0949 µM): 106% | viability, T/C (second compound 1 µM, first compound 0.3 µM): 90% | viability, T/C (second compound 1 µM, first compound 0.949 µM): 64.6% | viability, T/C (second compound 1 µM, first compound 3 µM): 49.2% | viability, T/C (second compound 3.16 µM, first compound 0.00949 µM): 114% | viability, T/C (second compound 3.16 µM, first compound 0.03 µM): 118% | viability, T/C (second compound 3.16 µM, first compound 0.0949 µM): 113% | viability, T/C (second compound 3.16 µM, first compound 0.3 µM): 90.8% | viability, T/C (second compound 3.16 µM, first compound 0.949 µM): 66.7% | viability, T/C (second compound 3.16 µM, first compound 3 µM): 43% | viability, T/C (second compound 10 µM, first compound 0.00949 µM): 108% | viability, T/C (second compound 10 µM, first compound 0.03 µM): 111% | viability, T/C (second compound 10 µM, first compound 0.0949 µM): 108% | viability, T/C (second compound 10 µM, first compound 0.3 µM): 89.3% | viability, T/C (second compound 10 µM, first compound 0.949 µM): 63% | viability, T/C (second compound 10 µM, first compound 3 µM): 36.4%
